Test results reported in US20250304547A1, “Sulfur-Containing Lipids” (NanoVation Therapeutics Inc., priority 2022, published 2025).

Experiments:
FVII gene = settings: mice, siRNA formulations of the amino lipid; cited from earlier work
[1] = Encapsulation efficiency, Quant-iT RiboGreen assay; assay type: physicochemical; settings: firefly luciferase mRNA LNP, ionizable lipid/DSPC/chol/PEG-DMG 50/10/38.5/1.5 mol %, N/P 6
Procedure: (§1) Lipids used in the formulation, nor-MC3, 4, DSPC, cholesterol, and PEG-DMG, were dissolved in ethanol at the appropriate ratios to a final concentration of 10 mM total lipid. Nucleic acid (mRNA) was dissolved in an appropriate buffer such as 25 mM sodium acetate pH 4 or sodium citrate pH 4 to a concentration necessary to achieve the appropriate amine-to-phosphate ratios. The aqueous and organic solutions were mixed using a rapid-mixing device as described in Kulkami et al., 2018, ACS Nano, 12:4787 and Kulkami et al., 2017, Nanoscale, 36:133347 (each incorporated herein by reference) at a flow rate ratio of 3:1 (v/v; respectively) and a total flow rate of 20 mL/min. The resultant mixture was dialyzed directly against 1000-fold volume of PBS pH 7.4. All formulations were concentrated using an Amicon™ centrifugal filter unit and analysed using the methods described below.
Particle size analysis of LNPs in PBS was carried out using backscatter measurements of dynamic light scattering with a Malvern Zetasizer™ (Worcestershire, UK). […] Total lipid concentrations were determined by extrapolation from the cholesterol content, which was measured using the Cholesterol E-Total Cholesterol Assay (Wako Diagnostics, Richmond, VA) as per the manufacturer's recommendations. Encapsulation efficiency of the formulations was determined using the Quant-iT RiboGreen™ Assay kit (Invitrogen, Waltham, MA). […]

[2] = Particle size analysis of LNPs by dynamic light scattering; assay type: physicochemical; settings: firefly luciferase mRNA LNP, ionizable lipid/DSPC/chol/PEG-DMG 50/10/38.5/1.5 mol %; for polydispersity index (PDI): N/P 6; for particle size (number-weighted average diameter): N/P 6, in PBS
Procedure: as §1
Particle size analysis of LNPs in PBS was carried out using backscatter measurements of dynamic light scattering with a Malvern Zetasizer™ (Worcestershire, UK). The reported particle sizes correspond to the number-weighted average diameters (nm). Total lipid concentrations were determined by extrapolation from the cholesterol content, which was measured using the Cholesterol E-Total Cholesterol Assay (Wako Diagnostics, Richmond, VA) as per the manufacturer's recommendations. Encapsulation efficiency of the formulations was determined using the Quant-iT RiboGreen™ Assay kit (Invitrogen, Waltham, MA). Briefly, the total mRNA content in solution was measured by lysing lipid nanoparticles in a solution of Tris-EDTA (TE) containing 2% Triton Tx-100, and free […] in solution (external to LNP) was measured based on the RiboGreen™ fluorescence in a TE solution without Triton. Total mRNA content in the formulation was determined using a modified Bligh-Dyer extraction procedure. Briefly, LNP formulations containing mRNA were dissolved in a mixture of chloroform, methanol, and PBS that results in a single phase and the absorbance at 260 nm measured using a spectrophotometer.

liver = assay: In vivo transfection of firefly luciferase mRNA-LNP, luciferase assay of liver; settings: CD-1 mice, intravenous, 4 hours post-administration, mRNA LNP 50/10/38.5/1.5 mol %, N/P 6
Procedure: as §1
(§2) LNP-mRNA encoding firefly luciferase were injected intravenously (tail-vein) into 6-8 week old CD-1 mice. Four hours following injection, the animals were euthanized and the liver and spleen were isolated. Tissue was homogenized in Glo Lysis™ buffer and a luciferase assay performed using the Steady Glo Luciferase™ assay kit (as per manufacturers recommendations).

spleen = assay: In vivo transfection of firefly luciferase mRNA-LNP, luciferase assay of spleen; settings: CD-1 mice, intravenous, 4 hours post-administration, mRNA LNP 50/10/38.5/1.5 mol %, N/P 6
Procedure: as §1, §2

| entrapment / encapsulation efficiency [1] | polydispersity index (PDI) [2] | particle size (number-weighted average diameter) [2] | Compound | ED50 for FVII gene silencing (FVII gene) | luminescence intensity/mg of liver, relative to the nor-MC3 formulation (liver) | luminescence intensity/mg of spleen, relative to the nor-MC3 formulation (spleen) |
| --- | --- | --- | --- | --- | --- | --- |
| – | – | – | CCCCC/C=C\C/C=C\CCCCCCCCC1(CCCCCCCC/C=C\C/C=C\CCCCC)OCC(CCN(C)C)O1 (stereo not drawn) [KC2] | 0.1 mg/kg | – | – |
| ~90% | about 0.090 | about 50.0 nm | CCCCCSCSCCCCCCCCC1(CCCCCCCCSCSCCCCC)OCC(CCN(C)C)O1 (stereo not drawn) [Lipid 4, 2-(2,2-bis(8-(((pentylthio)methyl)thio)octyl)-1,3-dioxolan-4-yl)-N,N-dimethyl-ethan-1-amine] | – | trend was reversed in the liver | higher luminescence intensity in the spleen |
| 94% | about 0.075 | about 39.9 nm | nor-MC3 [reference compound] | – | – | – |
